US10443081B2, “Methods for the expression of peptides and proteins” (Numaferm GmbH, priority 2013, dated 2019)
Where two headings read alike, the source gives them in different places.

Target: T1, HlyA1-IFABP fusion protein (encoded by pIAR_207, SEQ ID NO: 20; IFABP wt accession NP_037200) (Rattus norvegicus, UniProt P02693)
T1 construct: pIAR_207
Test: Fluorescence spectroscopy titration with DAUDA, refolded HlyA1-IFABP
Format: binding
Details: 100 nM protein, 20 mM KH2PO4, 0.25 mM EDTA, pH 7.3, excitation 350 nm, emission 500 nm
Description: SEC analyses of refolded HlyA1-IFABP. A and C: SDS-PAGE gel of elution fractions from SEC analysis of HlyA1-IFABP refolded with Ca^2+ and elution chromatogram of the SEC. B and D: SDS-PAGE gel of elution fractions from SEC analysis of HlyA1-IFABP refolded with EDTA and elution chromatogram of the SEC. E: Purified HlyA1-IFABP in the presence of either Ca^2+ or EDTA were incubated with Factor Xa and protein samples were analyzed by SDS-PAGE at indicated time points. The arrow indicates the position of IFABP. F and G: Functional studies of HlyA1-IFABP using titration experiments with DAUDA. F: HlyA1-IFABP was refolded in the presence of Ca^2+ and purified by SEC. DAUDA was titrated to HlyA1-IFABP, the fluorescence signal at 500 nm was recorded and plotted against the DAUDA concentration. […]
11-(Dansylamino)undecanoic acid (DAUDA, Cayman Chemical) was prepared as a 1 mM stock solution in 50% isopropanol and 50% buffer (20 mM KH2PO4, 0.25 mM EDTA, pH 7.3) and further diluted to the appropriate concentrations with buffer. […] The fluorescence signal was recorded at a wavelength of 500 nm after excitation at 350 nm using a Fluorolog®-3 (Horiba) (Kim and Frieden (1998) Protein Sci, 7, 1821-1828). […] Fluorescence signals of DAUDA in buffer in the absence of protein was subtracted as background. The corrected and normalized fluorescence signals were plotted against the DAUDA concentration. […]

T1 sequence (P02693 1-132 with tags or gaps): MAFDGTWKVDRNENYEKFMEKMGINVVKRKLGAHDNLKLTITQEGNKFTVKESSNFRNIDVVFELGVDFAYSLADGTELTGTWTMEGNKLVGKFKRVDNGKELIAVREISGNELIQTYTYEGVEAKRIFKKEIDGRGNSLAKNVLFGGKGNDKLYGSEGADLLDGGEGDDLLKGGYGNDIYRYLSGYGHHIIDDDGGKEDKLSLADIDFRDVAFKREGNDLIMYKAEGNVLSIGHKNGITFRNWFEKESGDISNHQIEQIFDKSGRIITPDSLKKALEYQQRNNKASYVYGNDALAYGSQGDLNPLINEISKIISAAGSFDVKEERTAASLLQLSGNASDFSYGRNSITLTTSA

CN(C)c1cccc2c(S(=O)(=O)NCCCCCCCCCCC(=O)O)cccc12 [DAUDA, 11-(((5-(dimethylamino)-1-naphthalenyl)sulfonyl)amino)-undecanoic acid]
Kd (refolded in the presence of Ca^2+, purified by SEC, read-out: KD for HlyA1-IFABP refolded in Ca^2+): 141 nM | Kd (refolded/purified in the presence of EDTA, read-out: KD for HlyA1-IFABP refolded in EDTA): 264 nM
